Experiments:
GLUT = assay: glycolysis assay (oligomycin + Cell Titer-Glo ATP readout) in HT1080 cells; type: cell-based; conditions: 10 μM oligomycin, one hour, glycolytically-derived ATP
Procedure, shortened: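 HT1080 cells exposed for one hour to compound plus 10 μM oligomycin to block mitochondrial ATP, so remaining ATP reflects glycolysis. Glycolytic ATP read by CellTiter-Glo luminescence; IC50 derived from dose-response curves.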

[1] = system: MOG-induced experimental autoimmune encephalitis; assay: mouse MOG-induced experimental autoimmune encephalitis (EAE) model; type: in vivo; conditions: compared to vehicle control
Text: In FIG. 4, Example 2 is shown to have efficacy against an in vivo mouse model of inflammation, MOG-induced experimental autoimmune encephalitis. Example 2 both delays the onset and lowers the end clinical score of inflammation in this model.
Mouse Prophylactic MOG-EAE Model: Performed at Hooke laboratories.

THP1 monocytes = assay: glycolysis assay in LPS-activated THP1 monocytes; type: cell-based; conditions: 1 μg/ml LPS 16 hrs, then one-hour glycolysis assay with oligomycin
Experimental: In FIG. 5A, THP1 cells were activated with 1 μg/ml LPS for 16 hrs prior to a one-hour glycolysis assay (Example 2+Oligomycin). In FIG. 5B, THP1 cells were treated with Example 2 one hour prior to a 16 hour treatment with 1 μg/ml LPS, after which MCP-1 secretion into the media was measured by ELISA (R&D systems) and cell number measured by Cell Titer Glo (Promega).
THP1 Monocyte assay: THP1 monocytic cancer cells were activated with 1 ug/ml LPS (Sigma-Aldrich). The previously described glycolysis assay was performed 16 hrs post-activation. For cytokine secretion, cells were pre-treated for one hour with GLUT inhibitors prior to 16 hours of 1 μg/ml LPS treatment.

[2] = system: TNFalpha and MCP-1 levels; assay: LPS/D-galactosamine mouse model, cytokine production; type: in vivo; conditions: 100 mg/kg p.o.
Experimental: 100 μg LPS and 18 mg D-galactosamine were used to induce cytokine production. […] In FIG. 6, Example 2 is shown to modulate cytokine/chemokine production in response to LPS/D-galactosamine (mouse model of sepsis and liver damage). Example 2 prevents the dramatic increase of TNFalpha (FIG. 6A), a cytokine well-established as a major driver of inflammation. In line with in vitro results, Example 2 abrogates an initial increase in MCP-1 (FIG. 6B), but is unable to statistically suppress MCP1 induction at later time points (not shown). LPS Mouse Model: Performed at Pharmalegacy.

[3] = system: markers of Teff and Treg cells; assay: flow cytometry of cytokines and lineage transcription factors in activated CD4 T cells; type: cell-based, human; conditions: 1 μM; CD4 T cells activated 48 hrs with IL-1β, TGF-β
Experimental: FIG. 7. […] FIG. 7A. CD4 T cells were activated for 48 hrs in the presence of IL-1β, TGF-β and 1 μM of the Example 2 compound. For the last 5 hrs, PMA/Ionomycin/Brefeldin A was added and intracellular staining for cytokines was performed. Flow cytometry was used to assess INFγ and IL-17A levels (gated on live cells). FIG. 7B. Cells were cultured and treated as in FIG. 7A, excluding PMA/Ionomycin/Brefeldin A treatment. Flow cytometry was used to assess levels of CD4 T cell lineage defining transcription factors.
GLUT1 and GLUT3 inhibitors downregulate the markers of T effector cells but not T regulatory cells. In, CD4 T cells were activated for 48 hrs in the presence of […], TGF-β and 1 μM of compound Example 2. […] Flow cytometry was used to assess INFγ and IL-17A levels (gated on live cells) and quantification of percent positive cells positive is shown in FIG. 7A. […]
T cell assays: Human CD4 T cells were purified using RossetteSep Human CD4 T cell Enrichment Cocktail. […] IL-17 levels were measured by ELISA (R&D systems, Human IL-17 Quantikine ELISA kit). Proliferation was measured by Cell Titer Glo (Promega). Intracellular staining was performed and analyzed using the Guava EasyCyte flow cytometer. […] Protein levels and phosphorylation status were assessed by western blot analysis using antibodies purchased from Cell Signaling.

- IC50 (GLUT): 149 nM
SMILES: CCOc1ccc2nc(-c3cccc(OCC(=O)NC(C)C)c3)nc(Nc3ccc(-c4cn[nH]c4)cc3)c2c1 [Ex. 2, 2-(3-(4-((4-(1H-pyrazol-4-yl)phenyl)amino)-6-ethoxyquinazolin-2-yl)phenoxy)-N-isopropylacetamide]
- end clinical score ([1]; 30 mg/kg p.o. daily): lowered the end clinical score
- onset of EAE ([1]; 30 mg/kg p.o. daily): delayed onset
- end clinical score ([1]; 100 mg/kg p.o. daily): lowered the end clinical score
- onset of EAE ([1]; 100 mg/kg p.o. daily): delayed onset
- glycolysis in LPS stimulated THP1 monocytes (THP1 monocytes): inhibit glycolysis
- increase of MCP-1 levels ([2]; 2 hours post LPS/Galn): unable to prevent a statistically significant increase
- increase of MCP-1 ([2]; one hour following LPS/Galn): inhibits the increase
- increase of TNFalpha ([2]; one hour following LPS/Galn): inhibits the increase
- markers of Teff and Treg cells [3]: downregulate markers of Teff but not Treg cells
